# Results as given in US20110190280A1, “Thiazole And Oxazole Kinase Inhibitors” (priority 2007, published 2011).
# Counter-ions that a name gives are not always drawn.
# Assays:
# Colo205 tumor cells = assay: Cell growth inhibition assay (CellTiter-Glo), Colo205; settings: Homo sapiens, COLO 205, 72 h, read-out: Activity in Colo205 Tumor Cells;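 also: growth measured via total ATP luminescence (CellTiter-Glo) as a proxy for cell number, inhibition expressed against DMSO-treated control wells, 3-day exposure at 0.2% final DMSO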
# SK-MEL-28 tumor cells = assay: Cell growth inhibition assay (CellTiter-Glo), SK-MEL-28; settings: Homo sapiens, SK-MEL-28, 72 h, read-out: Activity in SK-MEL-28 Tumor Cells;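 also: luminescent total ATP as a proxy for cell number, threefold serial dilutions at 0.2% DMSO, percent growth inhibition versus DMSO vehicle control wells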
# SK-MEL-3 tumor cells = assay: Cell growth inhibition assay (CellTiter-Glo), SK-MEL-3; settings: Homo sapiens, SK-MEL3, 72 h, read-out: Activity in SK-MEL-3 Tumor Cells;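 also: human melanoma cells grown with compound for 3 days in 0.2% DMSO, total ATP read by luminescence as proxy for cell number, growth inhibition versus DMSO-treated wells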
# Procedure: (§1) Cell Growth Inhibition Assays Human colon tumor cells (Colo205) were cultured in RPMI (Mediatech 50-020-PB) containing 10% FBS and 1% penicillin-streptomycin. […] Human melanoma cancer cells (A375-F11S) were cultured in RPMI (Mediatech 50-020-PB) containing 10% FBS, 1% sodium pyruvate, and 1% penicillin-streptomycin. Human colon cancer cells (HT-29) were cultured in high glucose DMEM (Mediatech 50-013-PB) containing 10% FBS and 1% penicillin-streptomycin. Human melanoma cancer cells (SK-MEL-3) were cultured in McCoy's 5A (50-025-PB) containing 15% FBS, and 1% penicillin-streptomycin. All cell lines were maintained at 37° C. in a humidified 5% CO2, 95% air incubator.
# (§2) The next day, compounds were diluted as follows: For 96-well assays, 13.5 μl of compound in DMSO were diluted using nine (9) serial 1:3 dilutions of 4.5 μl in 9 μl of DMSO. Medium (270 μl/well of RPMI with 10% FBS and 1% penicillin-streptomycin) was added to the plates. Aliquots (7 μl) were added to cells in the final assay giving a final DMSO concentration of 0.2%. For 384-well assays, 15 μl of compound in DMSO were diluted using nine (9) serial 1:3 dilutions of 5 μl in 10 μl of DMSO, followed by a further dilution of 5 μl of compound with 95 μl of medium, of which 2 μl are added to cells in the final assay giving a final DMSO concentration of 0.2%. Cells were incubated at 37° C., 5% CO2 for 3 days.
# (§3) Total ATP was measured (as a surrogate estimate of cell number) using CellTiter-Glo® (Promega G7571) reagent. Briefly, plates were removed from the incubator and allowed to equilibrate to room temperature for 30 minutes. CellTiter-Glo® (25 μl or 55 μl for 384-well or 96-well assays, respectively) reagent was added to each well and plates were shaken on an orbital plate shaker for 2 minutes. Plates were incubated without shaking for a further 30 minutes and read on an LJL Analyst GT reader in luminometer mode with an integration time of 0.5 seconds per well. Percent inhibition of cell growth was calculated relative to DMSO vehicle-treated control wells.
# A375P tumor cells = assay: Cell growth inhibition assay (CellTiter-Glo), A375P; settings: Homo sapiens, 72 h, read-out: Activity in A375P Tumor Cells;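 also: total ATP luminescence used as proxy for cell number, serial threefold compound dilutions at 0.2% DMSO, growth inhibition expressed versus DMSO vehicle-treated wells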
# HT-29 tumor cells = assay: Cell growth inhibition assay (CellTiter-Glo), HT-29; settings: Homo sapiens, HT-29, 72 h, read-out: Activity in HT-29 Tumor Cells;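 also: ATP content read by luminescence as proxy for cell number, growth inhibition versus DMSO vehicle wells, 0.2% DMSO final, nine serial threefold compound dilutions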
# Procedure: as §1, §2, §3
# B-Raf = B-Raf (Homo sapiens, UniProt P15056); assay: B-Raf Accelerated MEK ATPase assay (BRAMA); format: biochemical; settings: BRAMA enzyme assay; class by pIC50; read-out: B-Raf Activity
# Sequence of B-Raf (P15056 whole entry): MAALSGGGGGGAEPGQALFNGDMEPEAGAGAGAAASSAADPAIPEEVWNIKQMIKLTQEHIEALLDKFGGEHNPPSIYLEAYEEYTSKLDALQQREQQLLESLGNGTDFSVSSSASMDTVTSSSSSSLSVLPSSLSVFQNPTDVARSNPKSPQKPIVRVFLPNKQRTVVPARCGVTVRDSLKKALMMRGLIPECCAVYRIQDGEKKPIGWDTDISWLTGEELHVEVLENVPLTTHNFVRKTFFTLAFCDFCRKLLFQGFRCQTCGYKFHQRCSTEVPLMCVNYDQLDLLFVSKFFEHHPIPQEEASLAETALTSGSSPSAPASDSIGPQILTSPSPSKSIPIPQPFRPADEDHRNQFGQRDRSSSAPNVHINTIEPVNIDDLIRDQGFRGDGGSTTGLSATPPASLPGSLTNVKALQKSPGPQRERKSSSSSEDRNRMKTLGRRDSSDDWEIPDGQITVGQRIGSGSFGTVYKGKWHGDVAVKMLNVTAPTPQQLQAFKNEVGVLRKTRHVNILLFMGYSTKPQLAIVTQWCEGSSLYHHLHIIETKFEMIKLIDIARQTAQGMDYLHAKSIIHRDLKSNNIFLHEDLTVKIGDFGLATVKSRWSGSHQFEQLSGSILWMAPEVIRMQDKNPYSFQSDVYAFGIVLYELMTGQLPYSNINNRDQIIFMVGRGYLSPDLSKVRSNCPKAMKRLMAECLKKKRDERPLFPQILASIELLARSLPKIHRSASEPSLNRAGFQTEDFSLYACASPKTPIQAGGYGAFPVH
# How it was run: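 B-Raf activity read as intrinsic MEK ATPase: catalytic activated RAF with non-phosphorylated MEK drives ADP formation, coupled through pyruvate kinase and lactate dehydrogenase to NADH oxidation, independent of ERK phosphorylation.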
IC50 (Colo205 tumor cells) [nM],IC50 (SK-MEL-28 tumor cells) [nM],IC50 (SK-MEL-3 tumor cells) [nM],IC50 (A375P tumor cells) [nM],IC50 (HT-29 tumor cells) [nM],IC50 (B-Raf) [nM],Structure (SMILES)
500 to 5000,< 500,< 500,500 to 5000,< 500,< 100,"CCNc1nc(-c2cc(OC)cc(OC)c2)c(-c2ccnc(Nc3ccc(N4CCS(=O)(=O)CC4)c(F)c3)n2)s1 [Example 9, 4-[4-[3,5-Bis(methyloxy)phenyl]-2-(ethylamino)-1,3-thiazol-5-yl]-N-[4-(1,1-dioxido-4-thiomorpholinyl)-3-fluorophenyl]-2-pyrimidinamine]"
500 to 5000,500 to 5000,< 500,500 to 5000,< 500,< 100,"COc1cc(OC)cc(-c2nc(Nc3ccccc3)sc2-c2ccnc(Nc3ccc(OC4CCN(CCS(C)(=O)=O)CC4)c(F)c3)n2)c1 [Example 23, 4-[4-[3,5-Bis(methyloxy)phenyl]-2-(phenylamino)-1,3-thiazol-5-yl]-N-[3-fluoro-4-({1-[2-(methylsulfonyl)ethyl]-4-piperidinyl}oxy)phenyl]-2-pyrimidinamine hydrochloride]"
< 500,< 500,< 500,< 500,< 500,< 100,"CCNc1nc(-c2cc(OC)cc(OC)c2)c(-c2ccnc(Nc3ccc(O[C@H]4CCN(CCS(C)(=O)=O)C4)nc3)n2)s1 [Example 3, 4-[4-[3,5-Bis(methyloxy)phenyl]-2-(ethylamino)-1,3-thiazol-5-yl]-N-[6-({(3S)-1-[2-(methylsulfonyl)ethyl]-3-pyrrolidinyl}oxy)-3-pyridinyl]-2-pyrimidinamine]"
500 to 5000,500 to 5000,< 500,< 500,< 500,< 100,"COc1cc(OC)cc(-c2nc(NCCF)sc2-c2ccnc(Nc3ccc(OCCN4CCCC4)c(Cl)c3)n2)c1 [Example 21, 4-{4-[3,5-Bis(methyloxy)phenyl]-2-[(2-fluoroethyl)amino]-1,3-thiazol-5-yl}-N-(3-chloro-4-{[2-(1-pyrrolidinyl)ethyl]oxy}phenyl)-2-pyrimidinamine]"
< 500,500 to 5000,500 to 5000,500 to 5000,500 to 5000,< 100,CCNc1nc(-c2cc(OC)cc(OC)c2)c(-c2ccnc(Nc3ccc(N4CCN(CCF)CC4)nc3)n2)o1 [Example 112]
< 500,< 500,< 500,< 500,< 500,< 100,"CNc1nc(-c2cc(OC)cc(OC)c2)c(-c2ccnc(Nc3ccc(OCCN4CCCC4)c(Cl)c3)n2)s1 [Example 20, 4-[4-[3,5-Bis(methyloxy)phenyl]-2-(methylamino)-1,3-thiazol-5-yl]-N-(3-chloro-4-{[2-(1-pyrrolidinyl)ethyl]oxy}phenyl)-2-pyrimidinamine]"
500 to 5000,500 to 5000,< 500,< 500,< 500,< 100,"COc1cc(C)cc(-c2nc(C(C)C)sc2-c2ccnc(Nc3ccc(N4CCN(CCS(C)(=O)=O)CC4)c(F)c3)n2)c1 [Example 62, N-(3-Fluoro-4-{4-[2-(methylsulfonyl)ethyl]-1-piperazinyl}phenyl)-4-{2-(1-methylethyl)-4-[3-methyl-5-(methyloxy)phenyl]-1,3-thiazol-5-yl}-2-pyrimidinamine]"
< 500,< 500,< 500,< 500,< 500,< 100,"CCNc1nc(-c2cc(C)cc(OC)c2)c(-c2ccnc(Nc3ccc(OC4CCN(CCS(C)(=O)=O)CC4)c(F)c3)n2)s1 [Example 32, 4-{2-(Ethylamino)-4-[3-methyl-5-(methyloxy)phenyl]-1,3-thiazol-5-yl}-N-[3-fluoro-4-({1-[2-(methylsulfonyl)ethyl]-4-piperidinyl}oxy)phenyl]-2-pyrimidinamine]"
< 500,< 500,< 500,< 500,< 500,< 100,"COCCN1CCN(c2ccc(Nc3nccc(-c4sc(NC5CC5)nc4-c4cc(OC)cc(OC)c4)n3)cn2)CC1 [Example 18, 4-[4-[3,5-Bis(methyloxy)phenyl]-2-(cyclopropylamino)-1,3-thiazol-5-yl]-N-(6-{4-[2-(methyloxy)ethyl]-1-piperazinyl}-3-pyridinyl)-2-pyrimidinamine]"

# The next lines start with the molecule.
Structure (SMILES),IC50 (Colo205 tumor cells) [nM],IC50 (SK-MEL-28 tumor cells) [nM],IC50 (SK-MEL-3 tumor cells) [nM],IC50 (A375P tumor cells) [nM],IC50 (HT-29 tumor cells) [nM],IC50 (B-Raf) [nM]
CCNc1nc(-c2cc(C)cc(OC)c2)c(-c2ccnc(Nc3ccc(N4CC[C@@H](F)C4)nc3)n2)o1 [Example 81],500 to 5000,500 to 5000,500 to 5000,500 to 5000,500 to 5000,< 100
"COc1cccc(-c2nc(CO)sc2-c2ccnc(Nc3ccc(OCCN4CCCC4)c(F)c3)n2)c1 [Example 60, {5-{2-[(3-Fluoro-4-{[2-(1-pyrrolidinyl)ethyl]oxy}phenyl)amino]-4-pyrimidinyl}-4-[3-(methyloxy)phenyl]-1,3-thiazol-2-yl}methanol]",< 500,500 to 5000,< 500,500 to 5000,< 500,< 100
CCNc1nc(-c2cc(OC)cc(OC)c2)c(-c2ccnc(Nc3ccc(OC4CCN(CCS(C)(=O)=O)CC4)c(OC)c3)n2)o1 [Example 95],500 to 5000,500 to 5000,500 to 5000,500 to 5000,500 to 5000,< 100
"CCc1nc(-c2cc(C)cc(CO)c2)c(-c2ccnc(Nc3ccc(N4CCN(S(C)(=O)=O)CC4)nc3)n2)s1 [Example 66, (3-{2-Ethyl-5-[2-({6-[4-(methylsulfonyl)piperazin-1-yl]pyridin-3-yl}amino)pyrimidin-4-yl]-1,3-thiazol-4-yl}-5-methylphenyl)methanol]",< 500,500 to 5000,< 500,< 500,< 500,< 100
CCNc1nc(-c2cc(OC)cc(OC)c2)c(-c2ccnc(Nc3ccc(N4CCN(CCO)CC4)nc3)n2)o1 [Example 108],< 500,500 to 5000,500 to 5000,500 to 5000,500 to 5000,< 100
CCNc1nc(-c2cc(OC)cc(OC)c2)c(-c2ccnc(Nc3cc(OC)c(OC4CCN(CCS(C)(=O)=O)CC4)c(OC)c3)n2)o1 [Example 133],< 500,500 to 5000,500 to 5000,500 to 5000,500 to 5000,< 100
"CCc1nc(-c2cc(CO)cc(OC)c2)c(-c2ccnc(Nc3ccc(N4CCN(C(C)=O)CC4)nc3)n2)s1 [Example 65, [3-[5-(2-{[6-(4-Acetyl-1-piperazinyl)-3-pyridinyl]amino}-4-pyrimidinyl)-2-ethyl-1,3-thiazol-4-yl]-5-(methyloxy)phenyl]methanol]",500 to 5000,500 to 5000,500 to 5000,500 to 5000,500 to 5000,< 100
COc1cc(C)cc(-c2nc(C(C)C)oc2-c2ccnc(Nc3ccc(N4CCOCC4)nc3)n2)c1 [Example 99],500 to 5000,500 to 5000,500 to 5000,500 to 5000,500 to 5000,< 100
